In PubChem BioAssay AID1918995 (Molecular Pharmacology Branch, DTP, NCI, 2023):
pIC50: −log10 of the molar value. Several values for one entry are separate records, joined by “and”; a condition that tells them apart may be missing. Identical values can stand only once.

System: 324938-238-R-J1-PDC complex spheroid growth, % test/control
Assay: Anticancer human tumor 324938-238-R-J1-PDC patient-derived bladder carcinoma cell line growth inhibition [AhR]
Settings: for viability, T/C: stronger effect = lower value; active = viability on the fitted dose curve at most 10% of control; inactive = the rest
Outline: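 Agents were dosed in half-log steps down from roughly clinical Cmax, or from 10 microM where Cmax was unknown, alone and with AhR antagonists. Read-out: percent test/control growth of tumor spheroids containing HUVEC and MSC stromal cells.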

[1] = curve of first compound, second compound 0.1 µM
[2] = curve of first compound, second compound 0.316 µM
[3] = curve of first compound, second compound 1 µM
[4] = curve of first compound, second compound 3.16 µM
[5] = curve of first compound, second compound 10 µM
[6] = second compound 0.1 µM, first compound 0.0316 µM
[7] = second compound 0.1 µM, first compound 0.1 µM
[8] = second compound 0.1 µM, first compound 0.316 µM
[9] = second compound 0.1 µM, first compound 1 µM
[10] = second compound 0.1 µM, first compound 3.16 µM
[11] = second compound 0.1 µM, first compound 10 µM
[12] = second compound 0.316 µM, first compound 0.0316 µM
[13] = second compound 0.316 µM, first compound 0.1 µM
[14] = second compound 0.316 µM, first compound 0.316 µM
[15] = second compound 0.316 µM, first compound 1 µM
[16] = second compound 0.316 µM, first compound 3.16 µM
[17] = second compound 0.316 µM, first compound 10 µM
[18] = second compound 1 µM, first compound 0.0316 µM
[19] = second compound 1 µM, first compound 0.1 µM
[20] = second compound 1 µM, first compound 0.316 µM
[21] = second compound 1 µM, first compound 1 µM
[22] = second compound 1 µM, first compound 3.16 µM
[23] = second compound 1 µM, first compound 10 µM
[24] = second compound 3.16 µM, first compound 0.0316 µM
[25] = second compound 3.16 µM, first compound 0.1 µM
[26] = second compound 3.16 µM, first compound 0.316 µM
[27] = second compound 3.16 µM, first compound 1 µM
[28] = second compound 3.16 µM, first compound 3.16 µM
[29] = second compound 3.16 µM, first compound 10 µM
[30] = second compound 10 µM, first compound 0.0316 µM
[31] = second compound 10 µM, first compound 0.1 µM
[32] = second compound 10 µM, first compound 0.316 µM
[33] = second compound 10 µM, first compound 1 µM
[34] = second compound 10 µM, first compound 3.16 µM
[35] = second compound 10 µM, first compound 10 µM
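Note: spheroids exposed to agents for seven days before viability read.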

Nc1ncn(C2CC(O)C(CO)S2)c(=O)n1 (stereo not drawn)
< 6.52 and 6.67: pIC50 (curve of compound)
inactive: viability, T/C (compound 0.000949 µM) 106% and 103% and 93.4% | viability, T/C (compound 0.003 µM) 86.6% and 105% and 95.5% | viability, T/C (compound 0.00949 µM) 86.8% and 106% and 94.1% | viability, T/C (compound 0.03 µM) 116% and 92.5% and 88.8% | viability, T/C (compound 0.0949 µM) 96.4% and 71.2% and 66.3% | viability, T/C (compound 0.3 µM) 138% and 60.1% and 43.4%

O=C(C=Cc1cccc(S(=O)(=O)Nc2ccccc2)c1)NO + Cc1cncc(-c2nc(NCCc3c[nH]c4ccccc34)c3ncn(C(C)C)c3n2)c1
5.43: pIC50 [4]
5.52: pIC50 [3]
active: viability, T/C [11] 1.77% | viability, T/C [17] 2.06% | viability, T/C [23] 3.32% | viability, T/C [29] 0.96%
> 7.50: pIC50 [5]
inactive: viability, T/C [6] 121% | viability, T/C [7] 130% | viability, T/C [8] 95.4% | viability, T/C [9] 104% | viability, T/C [10] 53.5% | viability, T/C [12] 101% | viability, T/C [13] 106% | viability, T/C [14] 95.3% | viability, T/C [15] 92.7% | viability, T/C [16] 56.2% | viability, T/C [18] 112% | viability, T/C [19] 122% | viability, T/C [20] 96.5% | viability, T/C [21] 95.2% | viability, T/C [22] 46.6% | viability, T/C [24] 133% | viability, T/C [25] 109% | viability, T/C [26] 125% | viability, T/C [27] 87.7% | viability, T/C [28] 60% | viability, T/C [30] 9.41% | viability, T/C [31] 28.3% | viability, T/C [32] 40% | viability, T/C [33] 63% | viability, T/C [34] 61.8% | viability, T/C [35] 0.41%
5.44: pIC50 [1] | pIC50 [2]

CC1COCCN1c1cc(C2(S(C)(=N)=O)CC2)nc(-c2ccnc3[nH]ccc23)n1 (stereo not drawn) + Cc1cncc(-c2nc(NCCc3c[nH]c4ccccc34)c3ncn(C(C)C)c3n2)c1
inactive: viability, T/C [6] 112% | viability, T/C [7] 126% | viability, T/C [8] 90.9% | viability, T/C [9] 93.4% | viability, T/C [10] 93.2% | viability, T/C [11] 74.2% | viability, T/C [12] 98.4% | viability, T/C [13] 127% | viability, T/C [14] 127% | viability, T/C [15] 110% | viability, T/C [16] 70.2% | viability, T/C [17] 86.7% | viability, T/C [18] 111% | viability, T/C [19] 109% | viability, T/C [20] 108% | viability, T/C [21] 96.4% | viability, T/C [22] 87.5% | viability, T/C [23] 73.5% | viability, T/C [24] 80.5% | viability, T/C [25] 92.5% | viability, T/C [26] 89.8% | viability, T/C [27] 109% | viability, T/C [28] 87.1% | viability, T/C [29] 81.1% | viability, T/C [30] 8.69% | viability, T/C [31] 13.3% | viability, T/C [32] 17.8% | viability, T/C [33] 14.7% | viability, T/C [34] 8.67% | viability, T/C [35] 5.3%
< 5.00: pIC50 [1] | pIC50 [2] | pIC50 [3] | pIC50 [4]
> 7.50: pIC50 [5]

O=C(C=Cn1cnc(-c2cc(C(F)(F)F)cc(C(F)(F)F)c2)n1)NNc1cnccn1
inactive: viability, T/C (compound 0.00949 µM) 129% and 95.9% and 85.8% | viability, T/C (compound 0.03 µM) 100% and 95.8% and 75.1% | viability, T/C (compound 0.0949 µM) 71.5% and 69.7% and 47.7% | viability, T/C (compound 0.3 µM) 58.5% and 34.4% and 27% | viability, T/C (compound 0.949 µM) 45.4% and 16.9% and 15.9%
6.17 and 6.74 and 7.04: pIC50 (curve of compound)
